pKi: −log10 of the molar value. Where a SMILES comes first, the peptide text is derived from it. [ ]: non-standard residue; d: D form. Dip = N[C@H](C(=O)O)C(c1ccccc1)c1ccccc1; 2Nal = N[C@@H](Cc1ccc2ccccc2c1)C(=O)O; dGla = N[C@H](CC(C(=O)O)C(=O)O)C(=O)O; Cha = N[C@@H](CC1CCCCC1)C(=O)O

Assay [1] concerns the target NS3 (Hepatitis C virus) (UniProt A3EZJ3). The assay can be described thus: Inhibitory activity against hepatitis C virus (HCV) NS3 protease (isolated domain) at a concentration of 6 uM. Particulars: Hepacivirus hominis.
For assay [2], the target named is T1, NS3 (Hepatitis C virus, UniProt A3EZJ3). Put plainly: Inhibitory activity against hepatitis C virus (HCV) NS3 protease (full-length). The arrangement: species or system Hepacivirus hominis.
T1 sequence (A3EZJ3 whole entry, the tested form may be a part): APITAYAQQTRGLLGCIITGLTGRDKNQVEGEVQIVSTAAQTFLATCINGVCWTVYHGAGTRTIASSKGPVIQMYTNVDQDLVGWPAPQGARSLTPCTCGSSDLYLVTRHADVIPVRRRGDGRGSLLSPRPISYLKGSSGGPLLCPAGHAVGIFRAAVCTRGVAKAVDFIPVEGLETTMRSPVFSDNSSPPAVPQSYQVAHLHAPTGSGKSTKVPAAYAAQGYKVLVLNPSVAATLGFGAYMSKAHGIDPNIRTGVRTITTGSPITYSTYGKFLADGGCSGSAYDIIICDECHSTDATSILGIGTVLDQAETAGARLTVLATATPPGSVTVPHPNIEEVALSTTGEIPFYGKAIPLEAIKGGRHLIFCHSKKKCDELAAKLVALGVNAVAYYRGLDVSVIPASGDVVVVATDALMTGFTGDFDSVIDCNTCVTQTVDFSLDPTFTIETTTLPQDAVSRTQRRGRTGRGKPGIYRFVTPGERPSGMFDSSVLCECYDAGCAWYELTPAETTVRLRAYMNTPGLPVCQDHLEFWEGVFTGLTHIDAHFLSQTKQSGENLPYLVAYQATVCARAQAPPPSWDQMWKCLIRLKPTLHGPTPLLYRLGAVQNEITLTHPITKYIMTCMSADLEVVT
For assay [3], the target named is T1, NS3. The assay can be described thus: Inhibitory activity against hepatitis C virus (HCV) NS3 protease (isolated domain). The arrangement: species or system Hepacivirus hominis.

Chain of NS3 (Hepatitis C virus) (A3EZJ3 as listed by the source): as the sequence (A3EZJ3 whole entry, the tested form may be a part) above

The inhibition is the percentage by which the read-out fell short of the control. Low readings indicate little suppression, high ones strong suppression. A word on the pKi: it is −log10 of the Ki, conventionally taken in molar units. A lower pKi goes with a large Ki. `CC(=O)N[C@@H](CC(=O)O)C(=O)N[C@@H](CCC(=O)O)C(=O)N[C@H](C(=O)N[C@@H](CCCCN)C(=O)N[C@@H](CC1CCCCC1)C(=O)N[C@@H](CS)C(=O)O)C(c1ccccc1)c1ccccc1` (Ac-DE[Dip]K[Cha]C-OH) came in with an inhibition in assay [1] of 8%. In assay [2], the pKi was 5.91. For `CC[C@H](C)[C@H](NC(=O)[C@@H](NC(=O)[C@H](CCC(=O)O)NC(C)=O)C(c1ccccc1)c1ccccc1)C(=O)N[C@@H](CC1CCCCC1)C(=O)N[C@@H](CS)C(=O)O` (Ac-E[Dip]I[Cha]C-OH), the pKi in assay [3] was 5.92; in assay [2] it was 6.00.

Take Ac-DEMEEC-OH: the pKi in assay [3] was 6.30; in assay [2], 6.44. The like results for `CSCC[C@H](NC(=O)[C@H](CCC(=O)O)NC(=O)[C@H](CC(=O)O)NC(C)=O)C(=O)N[C@@H](CCC(=O)O)C(=O)N[C@@H](CC1CCCCC1)C(=O)N[C@@H](CS)C(=O)O` (Ac-DEME[Cha]C-OH) were, in that order, 6.40 and 6.36. In the same order, the values of `CC(=O)N[C@@H](CCC(=O)O)C(=O)N[C@H](C(=O)N[C@@H](CCC(=O)O)C(=O)N[C@@H](CC1CCCCC1)C(=O)N[C@@H](CS)C(=O)O)C(c1ccccc1)c1ccccc1` (Ac-E[Dip]E[Cha]C-OH) are 6.15 and 6.48.

In the case of `CC[C@H](C)[C@H](NC(=O)[C@@H](NC(C)=O)C(c1ccccc1)c1ccccc1)C(=O)N[C@@H](CC1CCCCC1)C(=O)N[C@@H](CS)C(=O)O` (Ac-[Dip]I[Cha]C-OH), the pKi in assay [3] is 4.30; in assay [2], 5.68. In the same order, the values of `CSCC[C@H](NC(=O)[C@H](CCC(=O)O)NC(=O)[C@H](CC(=O)O)NC(C)=O)C(=O)N[C@@H](CCC(=O)O)C(=O)N[C@@H](Cc1ccc2ccccc2c1)C(=O)N[C@@H](CS)C(=O)O` (Ac-DEME[2Nal]C-OH) are 6.74 and 5.98. As for `CC[C@H](C)[C@H](NC(C)=O)C(=O)N[C@@H](CC1CCCCC1)C(=O)N[C@@H](CS)C(=O)O` (Ac-Ile-[Cha]-Cys-OH), the pKi in assay [2] is 4.60. Regarding `CC(=O)N[C@@H](CC(=O)O)C(=O)N[C@@H](CCC(=O)O)C(=O)N[C@H](C(=O)N[C@@H](CCC(=O)O)C(=O)N[C@@H](CC1CCCCC1)C(=O)N[C@@H](CS)C(=O)O)C(c1ccccc1)c1ccccc1` (Ac-DE[Dip]E[Cha]C-OH), the results for the pKi in assay [3] and in assay [2] were 7.60 and 7.39, respectively.

Turning to `CC(=O)N[C@H](C(=O)N[C@@H](CCC(=O)O)C(=O)N[C@@H](CC1CCCCC1)C(=O)N[C@@H](CS)C(=O)O)C(c1ccccc1)c1ccccc1` (Ac-[Dip]E[Cha]C-OH), the pKi in assay [3] is 4.82; in assay [2] it was 5.96. The like results for `CC(=O)N[C@@H](CC(=O)O)C(=O)N[C@@H](CCC(=O)O)C(=O)N[C@@H](CC(C)C)C(=O)N[C@@H](CCC(=O)O)C(=O)N[C@@H](CC1CCCCC1)C(=O)N[C@@H](CS)C(=O)O` were, in that order, 7.22 and 6.31. The like results for `CC[C@H](C)[C@H](NC(=O)[C@@H](NC(=O)[C@H](CCC(=O)O)NC(=O)[C@H](CC(=O)O)NC(C)=O)C(c1ccccc1)c1ccccc1)C(=O)N[C@@H](CC1CCCCC1)C(=O)N[C@@H](CS)C(=O)O` (Ac-DE[Dip]I[Cha]C-OH) were, in that order, 7.52 and 6.66. In the same order, the values of `CC(=O)N[C@@H](CC(=O)O)C(=O)N[C@H](CCC(=O)O)C(=O)N[C@@H](CC(C)C)C(=O)N[C@@H](CCC(=O)O)C(=O)N[C@@H](CC1CCCCC1)C(=O)N[C@@H](CS)C(=O)O` are 7.64 and 6.74. The compound `CC(C)C[C@H](NC(=O)[C@@H](CCC(=O)O)NC(=O)[C@@H](N)CC(=O)O)C(=O)N[C@@H](CCC(=O)O)C(=O)N[C@@H](CC1CCCCC1)C(=O)N[C@@H](CS)C(=O)O` had a pKi in assay [2] of 5.81. With `CC(=O)N[C@@H](CCC(=O)O)C(=O)N[C@@H](CC1CCCCC1)C(=O)N[C@@H](CS)C(=O)O` (Ac-Glu-[Cha]-Cys-OH), the pKi is 3.64 in assay [3] and 5.39 in assay [2]. In the same order, the values of `CC[C@H](C)[C@H](NC(=O)[C@H](CC(C)C)NC(=O)[C@@H](CC(C(=O)O)C(=O)O)NC(=O)[C@H](CC(=O)O)NC(C)=O)C(=O)N[C@@H](CC1CCCCC1)C(=O)N[C@@H](CS)C(=O)O` (Ac-D[dGla]LI[Cha]C-OH) are 9.12 and 7.92.

Values taken from ChEMBL document CHEMBL1133784, “Inhibition of hepatitis C virus NS3 protease activity by product-based peptides is dependent on helicase domain” (Bioorg Med Chem Lett, 2001).
